The source of these data is patent US10421765B2, “Tetrahydropyrido[4,3-d]pyrimidine inhibitors of ATR kinase” (Board of Regents, The University of Texas System, priority 2017, dated 2019).

Molecules are shown by their SMILES. Where two headings read alike, the source gives them in different places.

Assay [1] relates to ATR-driven phosphorylation of Chk1 kinase at Serine 345 in HT-29 colorectal adenocarcinoma cells. The assay is described as follows: pCHK1 cellular assay (CHK1 p-Ser345 AlphaScreen SureFire). The assay is classed as cell-based. Conditions: 4-nitroquinoline N-oxide 12 uM, read-out: Cell IC50 (pCHK1 IC50 values). How it is done:
Inhibitors of ATR kinase are effective at inhibiting the ATR-driven phosphorylation of the downstream target Chk1 kinase at Serine 345, following the addition of 4-nitroquinoline N-oxide, a chemical used to induce DNA damage. Cellular IC50 for the inhibitors of ATR described herein were measured in HT-29 colorectal adenocarcinoma cells. HT-29 cells were routinely maintained in McCoy's 5A media (ATCC Catalog #30-2007) supplemented with 10% fetal bovine serum (Sigma Catalog #F2442) and 1× Penicillin-Streptomycin (Gibco Catalog #15140-122) using a humidified incubator (37° C., 5% CO2, and ambient O2).
In preparation for the CHK1 (p-Ser345) ALPHASCREEN® SUREFIRE® assay, cells were harvested and resuspended in McCoy's 5A media supplemented with 10% fetal bovine serum and 1× Penicillin-Streptomycin. Cells were seeded onto a 384-well black CELLSTAR® Tissue Culture Plate (VWR Catalog #89085-314) at a density of 13,000 cells/well in a volume of 40 uL. The microplate was incubated overnight (approximately 20 hours) at 37° C. with 5% CO2 and ambient O2. Stock solutions of the test compounds were prepared in 100% DMSO (Sigma, Catalog #D2650) and serially diluted 1:3 using 100% DMSO. Compounds were additionally diluted 1:33 in culture medium, and 10 ul/well were transferred to the tissue culture plate. Following the compound addition the microplate was incubated at 37° C. for 90 minutes. 10 uL of 4-nitroquinoline N-oxide (Sigma Aldrich Catalog #N8141-1G) diluted in media (final concentration 12 uM) were added to the tissue culture plate followed by a 120 minute incubation at 37° C. The cells were then washed with PBS and lysed using 10 uL/well SUREFIRE® Kit lysis buffer diluted to 1× in water (PerkinElmer Catalog #TGRCHK1S50K), with mixing on an orbital shaker at 500 rpm for 20 min at RT. Lysates were frozen at −20° C. overnight.
4 uL/well of lysate was then transferred from the tissue culture plate to a 384-well, white, low volume, PROXIPLATE™ (PerkinElmer Catalog #600828). 5 uL/well of the acceptor bead solution, prepared by diluting SUREFIRE® Kit activation buffer (PerkinElmer Catalog #TGRCHK1S50K) and ALPHASCREEN® Protein A acceptor beads (PerkinElmer Catalog #6760617R) in SUREFIRE® Kit reaction buffer (PerkinElmer Catalog #TGRCHK1S50K), were added to the lysates under subdued light and incubated at room temperature for 120 min. 2 uL/well of the donor bead solution, prepared by diluting ALPHASCREEN® Streptavidin donor beads (PerkinElmer Catalog #6760617R) in SUREFIRE® Kit dilution buffer (PerkinElmer Catalog #TGRCHK1S50K), were added under subdued light and incubated at room temperature for an addition 120 minutes. The pCHK1 ALPHASCREEN® signal was measured using an ENVISION® plate reader (PerkinElmer). IC50 values were calculated using a four-parameter logistic curve fit using Genedata Screener software. Percent of control for each compound concentration was calculated by the following formula: 100*(Compound−Min)/(Max−Min) where “Max” is the high control, DMSO, and “Min” is the low control, 5 uM ATR inhibitor.
On the technique in general: Alpha assays give light when donor and acceptor beads are brought close together.

Another assay has as its target ATR/ATRIP complex (Homo sapiens (Human), UniProt Q13535). The assay is described as follows: ATR/ATRIP enzymatic assay (Caliper-based). The assay is classed as biochemical. Conditions: FAM-labeled RAD17 peptide, ATP. How it is done:
Human full-length FLAG-TEV-ATR and His6-ATRIP were co-expressed in HEK293 cells. The cell pellet (20 g) was harvested and lysed in 100 mL of lysis buffer (20 mM Tris-HCl pH 7.5 at room temperature, 137 mM NaCl, 10% glycerol, 1 mM DTT, 1% (v/v) Tween-20, 0.1% (v/v) NP-40, complete protease inhibitor cocktail tablets, phosphatase inhibitor cocktail tablets, 2 mM MgCl2, 0.2 mM EDTA, and 1 mM ATP). After sonication and centrifugation, the supernatant was incubated at 4° C. for 3 hours with 1 mL of anti-FLAG resin (Sigma catalog #A2220) that had been pre-equilibrated in buffer A (20 mM Tris-HCl pH 7.5 at room temperature, 137 mM NaCl, 10% glycerol, 1 mM DTT, 2 mM MgCl2, and 0.2 mM EDTA). The sample was loaded into a column, and then washed with buffer A three times. Protein was subsequently eluted with 2 ml of buffer B (buffer A+200 μg/ml 3×FLAG peptide).
The ability of new chemical matter to inhibit the ATR catalytic activity in this ATR/ATRIP complex was assessed using a Caliper-based assay. A 2x enzyme solution (i.e., 4 nM enzyme) was prepared using 1× Kinase Reaction Buffer (25 mM HEPES pH 8, 0.0055% Brij-35, 10 mM MnCl2, and 1 mM DTT). A 2x peptide solution was then prepared consisting of 10 uM FAM-labeled RAD17 peptide (GL Biochem, catalog #524315) in 1× Kinase Reaction Buffer supplemented with 2 μM ATP. 10 μL of the 2× enzyme solution was transferred to an assay plate containing 60 nL of test compound (from a 3× serial dilution) in 100% DMSO. Following a 30 minute incubation at 28° C., 10 μL of the 2× peptide solution was then transferred to the same assay plate. The reaction was allowed to incubate at 28° C. for 6 hours. After adding […] of stop buffer (100 mM HEPES pH 7.5, 0.015% Brij-35, 0.2% Coating-3 Reagent (PerkinElmer, catalog #PN760050), and 50 mM EDTA), data were collected on a Caliper instrument. Conversion values were converted to inhibition values via the following equation: % inhibition=(max−conversion)/(max−min)*100, whereby “max” corresponds to the DMSO control and “min” corresponds to the low control. IC50 values were calculated using the following equation in XLFit: Y=Bottom+(Top−Bottom)/1+(IC50/X)^HillSlope).

Setting [2] is: Homo sapiens, HT-29, HT-29 cells.
Setting [3] is: read-out: ATR/ATRIP Enzyme IC50.
The mark [4] stands for this setting: estimated range, read-out: ATR/ATRIP Enzyme IC50 (estimated class).

Sequence of ATR/ATRIP complex (Q13535 whole entry): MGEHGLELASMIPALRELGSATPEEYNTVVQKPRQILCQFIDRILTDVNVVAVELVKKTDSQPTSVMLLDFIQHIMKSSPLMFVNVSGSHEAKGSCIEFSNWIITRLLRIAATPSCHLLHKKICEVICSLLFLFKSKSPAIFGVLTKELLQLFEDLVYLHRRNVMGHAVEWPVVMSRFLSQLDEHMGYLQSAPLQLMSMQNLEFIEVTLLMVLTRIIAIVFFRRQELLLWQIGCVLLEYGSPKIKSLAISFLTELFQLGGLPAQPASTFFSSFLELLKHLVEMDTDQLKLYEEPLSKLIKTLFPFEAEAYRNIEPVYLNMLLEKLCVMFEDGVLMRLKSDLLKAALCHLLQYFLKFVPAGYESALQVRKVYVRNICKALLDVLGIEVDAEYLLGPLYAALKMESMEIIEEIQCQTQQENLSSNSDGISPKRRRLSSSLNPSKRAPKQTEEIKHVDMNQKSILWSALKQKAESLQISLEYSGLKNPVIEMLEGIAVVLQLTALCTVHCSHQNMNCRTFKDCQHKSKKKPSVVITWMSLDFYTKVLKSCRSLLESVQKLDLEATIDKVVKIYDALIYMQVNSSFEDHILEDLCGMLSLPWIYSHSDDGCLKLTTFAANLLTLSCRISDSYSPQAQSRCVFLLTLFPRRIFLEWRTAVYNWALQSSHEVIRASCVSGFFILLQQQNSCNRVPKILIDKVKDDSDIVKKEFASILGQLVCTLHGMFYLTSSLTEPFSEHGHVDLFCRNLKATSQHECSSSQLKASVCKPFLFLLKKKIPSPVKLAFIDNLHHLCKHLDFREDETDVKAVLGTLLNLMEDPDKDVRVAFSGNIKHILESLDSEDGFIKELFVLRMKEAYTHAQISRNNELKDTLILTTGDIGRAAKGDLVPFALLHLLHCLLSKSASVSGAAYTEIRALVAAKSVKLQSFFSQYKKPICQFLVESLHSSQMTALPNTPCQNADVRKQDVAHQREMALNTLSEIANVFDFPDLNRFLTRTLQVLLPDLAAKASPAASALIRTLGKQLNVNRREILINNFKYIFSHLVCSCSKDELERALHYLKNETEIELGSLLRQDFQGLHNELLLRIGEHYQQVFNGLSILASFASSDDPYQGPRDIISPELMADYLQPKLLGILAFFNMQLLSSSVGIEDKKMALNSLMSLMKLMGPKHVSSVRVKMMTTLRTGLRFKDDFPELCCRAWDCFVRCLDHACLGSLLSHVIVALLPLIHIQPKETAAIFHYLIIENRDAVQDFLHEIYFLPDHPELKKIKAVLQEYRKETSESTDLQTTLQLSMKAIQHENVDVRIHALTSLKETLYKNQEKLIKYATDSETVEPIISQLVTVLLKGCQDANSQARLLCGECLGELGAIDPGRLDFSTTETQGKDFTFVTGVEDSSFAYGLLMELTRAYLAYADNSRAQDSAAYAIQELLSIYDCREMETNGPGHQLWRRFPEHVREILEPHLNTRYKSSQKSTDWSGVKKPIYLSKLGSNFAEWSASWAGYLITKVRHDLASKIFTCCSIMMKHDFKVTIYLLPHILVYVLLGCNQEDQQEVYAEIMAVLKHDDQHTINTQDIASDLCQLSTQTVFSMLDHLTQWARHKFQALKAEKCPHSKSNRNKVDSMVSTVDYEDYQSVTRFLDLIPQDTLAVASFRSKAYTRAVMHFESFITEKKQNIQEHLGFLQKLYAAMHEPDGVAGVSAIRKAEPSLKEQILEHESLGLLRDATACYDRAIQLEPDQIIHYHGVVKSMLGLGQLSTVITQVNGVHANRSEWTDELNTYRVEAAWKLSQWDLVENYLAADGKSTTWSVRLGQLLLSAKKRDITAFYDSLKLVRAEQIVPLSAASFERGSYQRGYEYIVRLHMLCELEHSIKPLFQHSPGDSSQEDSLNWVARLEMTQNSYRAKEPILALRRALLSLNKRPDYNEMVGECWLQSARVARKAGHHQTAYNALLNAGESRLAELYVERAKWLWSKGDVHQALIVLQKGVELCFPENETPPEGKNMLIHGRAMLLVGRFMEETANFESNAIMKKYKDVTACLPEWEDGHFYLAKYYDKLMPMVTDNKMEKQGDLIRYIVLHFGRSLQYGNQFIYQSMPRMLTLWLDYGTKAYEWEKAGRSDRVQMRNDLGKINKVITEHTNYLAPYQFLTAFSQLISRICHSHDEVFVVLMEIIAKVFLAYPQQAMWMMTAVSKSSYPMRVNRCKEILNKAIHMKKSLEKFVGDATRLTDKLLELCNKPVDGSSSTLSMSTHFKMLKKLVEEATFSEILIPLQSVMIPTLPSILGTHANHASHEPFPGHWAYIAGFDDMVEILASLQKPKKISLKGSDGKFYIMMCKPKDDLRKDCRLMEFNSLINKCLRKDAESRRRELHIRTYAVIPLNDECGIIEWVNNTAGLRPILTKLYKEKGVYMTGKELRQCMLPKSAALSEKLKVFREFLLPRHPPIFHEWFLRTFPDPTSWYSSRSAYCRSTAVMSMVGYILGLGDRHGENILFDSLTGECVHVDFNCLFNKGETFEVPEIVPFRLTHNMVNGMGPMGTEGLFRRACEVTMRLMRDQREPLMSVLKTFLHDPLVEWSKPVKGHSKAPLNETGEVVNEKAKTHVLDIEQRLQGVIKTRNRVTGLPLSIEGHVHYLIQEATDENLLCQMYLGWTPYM
Sequence of ATR/ATRIP complex (Q8WXE1 whole entry partner): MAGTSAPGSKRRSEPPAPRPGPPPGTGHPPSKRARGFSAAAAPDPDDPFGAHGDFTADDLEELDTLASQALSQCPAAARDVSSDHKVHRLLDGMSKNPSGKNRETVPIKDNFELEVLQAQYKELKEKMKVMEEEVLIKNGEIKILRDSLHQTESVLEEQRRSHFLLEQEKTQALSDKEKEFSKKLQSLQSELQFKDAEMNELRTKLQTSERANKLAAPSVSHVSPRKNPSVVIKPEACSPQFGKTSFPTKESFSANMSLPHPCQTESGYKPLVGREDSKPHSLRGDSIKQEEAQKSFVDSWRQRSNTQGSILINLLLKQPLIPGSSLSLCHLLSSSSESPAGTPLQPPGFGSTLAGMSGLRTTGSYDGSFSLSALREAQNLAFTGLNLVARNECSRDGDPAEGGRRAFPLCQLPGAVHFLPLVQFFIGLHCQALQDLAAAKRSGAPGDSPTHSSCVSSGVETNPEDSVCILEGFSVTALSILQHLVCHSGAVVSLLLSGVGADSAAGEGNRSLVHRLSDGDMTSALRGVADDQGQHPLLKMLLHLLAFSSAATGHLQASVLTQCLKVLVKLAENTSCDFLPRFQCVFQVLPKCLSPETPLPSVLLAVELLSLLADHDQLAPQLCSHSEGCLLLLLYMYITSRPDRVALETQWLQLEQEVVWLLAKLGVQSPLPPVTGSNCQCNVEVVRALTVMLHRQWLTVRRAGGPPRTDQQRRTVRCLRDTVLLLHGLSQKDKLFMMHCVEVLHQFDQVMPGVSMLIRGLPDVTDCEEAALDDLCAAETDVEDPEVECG

As for `CS(=O)(=O)N1CCC(c2ncnc3c2CN(c2ccnc4[nH]ccc24)[C@H](CF)C3)CC1` [Example 52b, (S)-7-(fluoromethyl)-4-(1-(methylsulfonyl)piperidin-4-yl)-6-(1H-pyrrolo[2,3-b]pyridin-4-yl)-5,6,7,8-tetrahydropyrido[4,3-d]pyrimidine], the results for the IC50 (in assay [1] (setting [2]); on ATR/ATRIP complex (setting [3])) were 209 nM and 878 nM, respectively.

As for `C[C@@H]1Cc2ncnc(C3CCN(S(C)(=O)=O)CC3)c2CN1c1cnc2cn[nH]c2c1` [Example 89, (R)-7-methyl-4-(1-(methylsulfonyl)piperidin-4-yl)-6-(1H-pyrazolo-[4,3-b]pyridin-6-yl)-5,6,7,8-tetrahydro-pyrido[4,3-d]pyrimidine], the IC50 came out at 7390 nM in assay [1] (setting [2]) and 138 nM on ATR/ATRIP complex (setting [3]).

For `CNC(=O)C1CN(c2ncnc3c2CN(c2cc(Cl)nc4[nH]ccc24)[C@H](C)C3)C1` [Example 34, 1-[(7R)-6-{6-chloro-1H-pyrrolo[2,3-b]pyridin-4-yl}-7-methyl-5H,6H,7H,8H-pyrido[4,3-d]pyrimidin-4-yl]-N-methylazetidine-3-carboxamide], the IC50 in assay [1] (setting [2]) stood at 87 nM; on ATR/ATRIP complex (setting [3]), 429 nM.

For the compound `CC1Cc2ncnc(-c3ccc(S(C)(=O)=O)cc3)c2CN1c1ccnc2[nH]ccc12` (stereo not drawn) [Example 3, 7-Methyl-4-(4-(methylsulfonyl)phenyl)-6-(1H-pyrrolo[2,3-b]pyridin-4-yl)-5,6,7,8-tetrahydropyrido[4,3-d]pyrimidine bis(trifluoroacetate)], the IC50 is 183 nM in assay [1] (setting [2]) and 1970 nM on ATR/ATRIP complex (setting [3]).

Turning to `C[C@@H]1Cc2ncnc(N3CCC4(CC3)CNC(=O)O4)c2CN1c1cc(Cl)nc2[nH]ccc12` [Example 31, 8-[(7R)-6-{6-chloro-1H-pyrrolo[2,3-b]pyridin-4-yl}-7-methyl-5H,6H,7H,8H-pyrido[4,3-d]pyrimidin-4-yl]-1-oxa-3,8-diazaspiro[4.5]decan-2-one], the IC50 in assay [1] (setting [2]) is 72 nM; at ATR/ATRIP complex (setting [3]), 434 nM.

Regarding `CC1Cc2ncnc(-c3cccc(S(C)(=O)=O)c3)c2CN1c1ccnc2[nH]ccc12` (stereo not drawn) [Example 15, 4-(3-methanesulfonyl-phenyl)-7-methyl-6-{1H-pyrrolo[2,3-b]pyridin-4-yl}-5H,6H,7H,8H-pyrido[4,3-d]pyrimidine], the values for the IC50 (in assay [1] (setting [2]); at ATR/ATRIP complex (setting [4])) were 152 nM and 1000 to 10000 nM, respectively.

On to `C[C@@H]1Cc2ncnc(N3CCC34CN(S(C)(=O)=O)C4)c2CN1c1cc(Cl)nc2[nH]ccc12` [Example 37, (R)-6-(6-chloro-1H-pyrrolo[2,3-b]pyridin-4-yl)-7-methyl-4-(6-(methylsulfonyl)-1,6-diazaspiro[3.3]heptan-1-yl)-5,6,7,8-tetrahydropyrido[4,3-d] pyrimidine], for which the figures for the IC50 (in assay [1] (setting [2]); on ATR/ATRIP complex (setting [4])) were 56 nM and 1000 to 10000 nM, respectively.

Consider `C[C@@H]1Cc2ncnc(N3CCC(C#N)CC3)c2CN1c1ccnc2[nH]ccc12` [Example 82, (R)-1-(7-methyl-6-(1H-pyrrolo[2,3-b]pyridin-4-yl)-5,6,7,8-tetrahydro-pyrido[4,3-d]pyrimidin-4-yl)piperidine-4-carbonitrile], for which the IC50 is 79 nM in assay [1] (setting [2]) and 796 nM at ATR/ATRIP complex (setting [3]).

Take `C[C@@H]1Cc2ncnc(N3CCC(S(C)(=O)=O)C3)c2CN1c1cc(Cl)nc2[nH]ccc12` (stereo partly drawn) [Example 41, (7R)-6-(6-chloro-1H-pyrrolo[2,3-b]pyridin-4-yl)-7-methyl-4-(3-(methylsulfonyl)pyrrolidin-1-yl)-5,6,7,8-tetrahydropyrido[4,3-d]pyrimidine]: the IC50 is 36 nM in assay [1] (setting [2]) and 472 nM at ATR/ATRIP complex (setting [3]).

Consider `C[C@@H]1Cc2ncnc(C3C[C@H]4CC[C@@H](C3)N4S(C)(=O)=O)c2CN1c1cc(Cl)nc2[nH]ccc12` (single isomer, unassigned) [Example 11a], for which the IC50 in assay [1] (HT-29 cells) came to 28 nM; on ATR/ATRIP complex (setting [3]), 555 nM.

For `C[C@@H]1Cc2ncnc([C@H]3CCCN(S(C)(=O)=O)C3)c2CN1c1cc(Cl)nc2[nH]ccc12` (single isomer, unassigned) [Example 51b], the IC50 in assay [1] (HT-29 cells) was 48 nM.

For `C[C@@H]1Cc2ncnc(N3CC(NS(C)(=O)=O)C3)c2CN1c1cc(Cl)nc2[nH]ccc12` [Example 35, N-{1-[(7R)-6-{6-chloro-1H-pyrrolo[2,3-b]pyridin-4-yl}-7-methyl-5H,6H,7H,8H-pyrido[4,3-d]pyrimidin-4-yl]azetidin-3-yl}methanesulfonamide], the IC50 in assay [1] (setting [2]) is 34 nM.

`C[C@@H]1Cc2ncnc(N3CC(S(C)(=O)=O)C3)c2CN1c1ccnc2[nH]ccc12` [Example 36, 3-methanesulfonyl-1-[(7R)-7-methyl-6-{1H-pyrrolo[2,3-b]pyridin-4-yl}-5H,6H,7H,8H-pyrido[4,3-d]pyrimidin-4-yl]azetidine]: the IC50 in assay [1] (setting [2]) stood at 128 nM.

Turning to `C[C@@H]1Cc2ncnc([C@@H]3CCCN(S(C)(=O)=O)C3)c2CN1c1cc(Cl)nc2[nH]ccc12` (single isomer, unassigned) [Example 51a], the IC50 in assay [1] (HT-29 cells) was 11 nM.

As for `C[C@@H]1Cc2ncnc(N3CCC(S(C)(=O)=O)CC3)c2CN1c1ccnc2[nH]ccc12` [Example 88, (R)-7-methyl-4-(4-(methylsulfonyl)-piperidin-1-yl)-6-(1H-pyrrolo[2,3-b]pyridin-4-yl)-5,6,7,8-tetrahydro-pyrido[4,3-d]pyrimidine], on ATR/ATRIP complex (setting [3]), the IC50 amounted to 615 nM.

As to `C[C@@H]1Cc2ncnc(C3CCN(S(C)(=O)=O)CC3)c2CN1c1ncnc2[nH]ccc12` [Example 43, (R)-7-methyl-4-(1-(methylsulfonyl)piperidin-4-yl)-6-(7H-pyrrolo[2,3-d]pyrimidin-4-yl)-5,6,7,8-tetrahydropyrido[4,3-d] pyrimidine], on ATR/ATRIP complex (setting [4]), the IC50 is 1000 to 10000 nM.

For `C[C@@H]1Cc2ncnc(N3C[C@H]4CC[C@@H](C3)[C@H]4NS(C)(=O)=O)c2CN1c1cc(Cl)nc2[nH]ccc12` [Example 39, N-((1R,5S)-(8-syn)-3-((R)-6-(6-chloro-1H-pyrrolo[2,3-b]pyridin-4-yl)-7-methyl-5,6,7,8-tetrahydropyrido[4,3-d]pyrimidin-4-yl)-3-azabicyclo[3.2.1]octan-8-yl)methanesulfonamide], in assay [1] (setting [2]), the IC50 amounted to 27 nM.
